# Assays:
# [1] = test system: adults with biopsy-confirmed NASH; experiment: MAESTRO-NASH: non-invasive predictive markers of biopsy response; assay type: in vivo, human; settings: 100 mg
# Procedure: Histologic endpoints were assessed after 52 weeks. […] The non-invasive correlates of response in the MAESTRO-NASH trial are summarized below.
# Adults with ≥3 metabolic risk factors, liver stiffness ≥8.5 kPa, hepatic fat ≥8%, biopsy-confirmed NASH with F1B-F3 fibrosis, and NAS≥4 were eligible to participate in MAESTRO-NASH.
# Random Forest model was utilized to determine the biomarkers and imaging tests both at baseline and change from baseline that had the most important association with response on biopsy for NASH resolution and/or fibrosis improvement. The data was based on baseline characteristics and change from baseline of more than 40 variables: biomarkers, clinical features, and imaging. This analysis confirmed the importance of MRI-PDFF (FIGS. 42-43).
# [2] = clinical; settings: human, in vivo
# Excerpt: Following once daily doses, steady state was typically reached within 3 to 6 days of dosing.
smiles,measurement,setting,value
"CC(C)c1cc(Oc2c(Cl)cc(-n3nc(C#N)c(=O)[nH]c3=O)cc2Cl)n[nH]c1=O [Resmetirom, 2-(3,5-dichloro-4-((5-isopropyl-6-oxo-1,6-dihydropyridazin-3-yl)oxy)phenyl)-3,5-dioxo-2,3,4,5-tetrahydro-1,2,4-triazine-6-carbonitrile]",NASH resolution responders with at least a 30% PDFF response,[1],96%
same,fibrosis improvement responders with at least a 30% PDFF response,[1],88%
same,Tmax,[2],~4 h
same,half-life,[2],270 min
same,AUC,[2]; 80 mg,5850 ng·h/mL
same,Cmax,[2]; 80 mg,778 ng/mL
same,AUC,[2]; 100 mg,7780 ng·h/mL
same,Cmax,[2]; 100 mg,971 ng/mL

# Reference: patent US12377104B1, “Methods for treating a fatty liver disease” (Madrigal Pharmaceuticals, Inc., priority 2024, dated 2025)
